Laboratory results published in patent publication US12403200B2, “Methods and compositions for treating autoimmune diseases” (priority 2019, dated 2025).

Assays:
C57BL/6 (CD45.2+) mice = test: MOG-induced EAE model with congenic transplant; type: in vivo, mouse
Procedure: Experimental Autoimmune Encephalomyelitis (EAE) Model: C57BL/6 (CD45.2) mice were induced with MOG35-55 peptide in complete Freund's adjuvant, followed by the administration of pertussis toxin (PTX) at 4 h post MOG35-55 and 24 h post initial dose of PTX. Disease onset was around 9-12 days post induction. Animals were scored twice a day for a duration of 80 days post EAE induction. EAE Clinical Scoring Scale: 1-limp tail; 2-partial hind limb paralysis; 3-Complete hind limb paralysis; 4-Complete hind and partial front limb paralysis; 5-moribund bound. Animals were euthanized at 2 consecutive scores of 4. Terminal analysis of tissues (peripheral blood, lymph nodes) were evaluated to determine chimerism and immune component of the relapsing EAE mice. Lymph node cells were stimulated (S) with PMS/lonomycin (50 ng/mL) and Brefeldin A (1 μg/mL) or not stimulated (NS) and evaluated for T cell chimerism (donor, host) and IL-17 production.
To induce EAE in a murine model, C57BL/6 (CD45.2+) mice were induced with MOG35_55 peptide in complete Freund's adjuvant, followed by the administration of pertussis toxin (PTX). […]

[1] = Quintieri et al. 2005; cited from earlier work

SMILES | Incidence (C57BL/6 (CD45.2+) mice; Table 3, EAE incidence, treatment groups of FIG. 5G) [%] | Mean Time to EAE onset (C57BL/6 (CD45.2+) mice; Table 3, treatment groups of FIG. 5G) [days] | peak disease score in active EAE (C57BL/6 (CD45.2+) mice; treatment at day 13) | progression of disease activity in active EAE (C57BL/6 (CD45.2+) mice; treatment on day 10 or day 13) | cytotoxicity relative to the parent nemorubicin [1]
CCCCCCCCc1ccc(CCC(N)(CO)CO)cc1 [FTY-720, reference compound] | 100 | 12 | 2.3 | halted disease | 
COc1cccc2c1C(=O)c1c(O)c3c(c(O)c1C2=O)C[C@@](O)(C(=O)CO)C[C@@H]3O[C@H]1CC2[C@H](O[C@@H]3[C@@H](OC)OCCN23)[C@H](C)O1 (some centres unmarked) [PNU-159682] |  |  |  |  | greater than 3000 fold
